{"source": "paper PMC7217877", "about": "“N-AS-triggered SPMs are direct regulators of microglia in a model of Alzheimer’s disease” (Nature Communications, 2020)", "type_in_all_cases": "in vivo, mouse", "key": {"APP/PS1 mice [1]": {"system": "APP/PS1 mice", "assay": "flow cytometry of brain immune cells (Fig 5c-g)", "details": "APP/PS1 + N-AS, individual values", "protocol": "(§1) Transgenic mouse lines over-expressing the hAPP695swe (APP) and presenilin-1M146V (PS1) mutations were originated from GlaxoSmithKline (Harlow, UK)[32] and maintained as described previously. We purchased 5×FAD mice from Jackson Labs (Stock number. 34840-JAX). Because APP/PS1 and 5xFAD mice show sex differences in disease progression, we used only male mice. To examine possible therapeutic effect of N-AS and aspirin in APP/PS1 mice, the N-AS (30 mg kg^−1, Sigma-Aldrich, 01912) was injected daily s.c. for 8 weeks to 7-months-old APP/PS1 mice until the age of 9 months, and aspirin (2 mg kg^−1, Sigma-Aldrich, A5376)[33] was administrated orally to 7-months-old APP/PS1 mice for 8 weeks. Also, to confirm possible therapeutic efficacy of N-AS in 5×FAD, the N-AS (30 mg kg^−1, Sigma-Aldrich, 01912) was injected daily s.c. for 4 weeks to 3-months-old 5×FAD mice until the age of 4 months. Block randomization method was used to allocate the animals to experimental groups. To eliminate the bias, we were blinded in experimental progress such as data collection and data analysis. Mice were housed at temperature of 22 °C and a 12 h day/12 h night cycle with free access to tap water and food pellets. All protocols were approved by the Kyungpook National University Institutional Animal Care and Use Committee.\nBrain microglia polarity and immune cells in brain and blood were analyzed by flow cytometry. Cells from WT, APP/PS1, and APP/PS1 treated with N-AS mice brain were prepared as previously described with minor modifications. Brains of WT, APP/PS1, and APP/PS1 treated with N-AS mice were dissected and immediately transferred in ice-cold HBSS (Gibco). After gentle mincing, the brain was digested in a HBSS solution containing collagenase P (0.2 mg ml^−1, Roche), dispase II (0.8 mg ml^−1, Roche), DNase I (0.01 mg ml^−1, Roche), and collagenase A (0.3 mg ml^−1, Roche) at 37 °C for 1 h under gentle rocking. Digestion was stopped by adding FBS (Gibco) on ice. The supernatants were centrifuged at 250×g for 10 min at 4 °C. The pellet was resuspended in 25% BSA (Gibco)/PBS (Gibco) for myelin removal. Following a centrifugation step at 3000×g for 30 min at 4 °C, the myelin containing supernatant was discarded. The cell pellets were then resuspended in 1 ml of HBSS and filtered through a 40 μm mesh, followed by a washing step in HBSS. The cell pellets were resuspended in 1 ml of red blood cell lysis buffer (BD Biosciences) and incubated at RT for 10 min for lysis of erythrocytes. Subsequently, 2 ml of MACs buffer (Miltenyl Biotec, 130-091-222) was added and centrifuged at 250×g for 10 min at 4 °C. Cells from WT, APP/PS1, and APP/PS1 treated with N-AS mice blood were prepared as previously described with minor modifications. Blood was collected in sodium-heparin tube (BD, 367871) by cardiac puncture. Red blood cells were lysed once at 4 °C for 10 min in 0.15 M NH4Cl ([…] Technologies), washed once with PBS (Gibco), and counted using cell counter (Logos biosystems). […]"}, "APP/PS1 mice [2]": {"system": "APP/PS1 mice", "assay": "Iba1+ microglia and GFAP+ astrocyte quantification in cortex (Fig 6h,i)", "protocol": "Thioflavin S (Sigma-Aldrich) staining was carried out according to previously described procedures. We used 6E10 (mouse, 1:100, Signet, SIG39300), anti-20G10 (mouse, 1:1000, provided by D. R. Howlett, GlaxoSmithKline, Harlow, Essex, UK) for Aβ42, anti-G30 (rabbit, 1:1000, provided by D. R. Howlett) for Aβ40, SMA (mouse, 1:400, Sigma-Aldrich, A2547), AT8 (mouse, 1:500, Thermo Fisher Scientific, MN1020), Caspase-3 (mouse, 1:200, Novus Biologicals, NB100-56708), ac-S565 (rabbit, 1:100), COX2 (mouse, 1:250, Thermo Fisher Scientific, 35-8200), Iba1 (rabbit, 1:500, Wako, 019-19941 and goat, Abcam, ab5076), NeuN (mouse, 1:500, Millipore, MAB177), GFAP (rabbit, 1:500, Dako, N1506 and chicken, 1:500, Abcam, ab4674), and Lamp1 (mouse, 1:200, Abcam, ab24170). The sections were analyzed with a laser-scanning confocal microscope (FV3000; Olympus) or with a BX51 microscope (Olympus). MetaMorph software (Molecular Devices) was used to quantification. Three-dimensional reconstruction of microglia was recorded and analyzed using IMARIS software (Bitplane)[11]. For the analysis of age-dependent microglial COX2^+ CX3CR1^+ cells in WT and APP/PS1 mice, COX2 (rabbit, 1:100, Abcam, ab15191) and CX3CR1 (mouse, 1:100, BioLegend, 149008) antibody were used and the images were acquired on Alexa 488 and APC Channel with performed using Operetta CLS and Analysis Software 4.5 (Perkin-Elmer).\nTransgenic mouse lines over-expressing the hAPP695swe (APP) and presenilin-1M146V (PS1) mutations were originated from GlaxoSmithKline (Harlow, UK)[32] and maintained as described previously. We purchased 5×FAD mice from Jackson Labs (Stock number. 34840-JAX). Because APP/PS1 and 5xFAD mice show sex differences in disease progression, we used only male mice. To examine possible therapeutic effect of N-AS and aspirin in APP/PS1 mice, the N-AS (30 mg kg^−1, Sigma-Aldrich, 01912) was injected daily s.c. for 8 weeks to 7-months-old APP/PS1 mice until the age of 9 months, and aspirin (2 mg kg^−1, Sigma-Aldrich, A5376)[33] was administrated orally to 7-months-old APP/PS1 mice for 8 weeks. […]"}, "5×FAD mice": {"system": "5×FAD mice", "assay": "western blot of synaptophysin, MAP2, synapsin1, PSD95 (Supplementary Fig 8f-i)", "parameters": "synaptophysin (western blot) / MAP2 (western blot) / synapsin1 (western blot): scale not given here", "protocol": "Samples were lysed in RIPA buffer (Cell signaling Technologies), then subjected to SDS-PAGE and transferred to a nitrocellulose membrane. Membranes were blocked with 5% milk, incubated with primary antibody and then incubated with the appropriate horseradish peroxidase-conjugated secondary antibody. […] We performed densitometric quantification using the ImageJ software (National Institutes of Health). Images have been cropped for presentation.\nas §1"}, "[3]": {"details": "APP/PS1 + N-AS, individual animals"}}, "note": "Where “and” joins values, the source holds several entries; their conditions need not be identical. Identical values can stand only once."}
{"smiles": "CCCCCCCCCCCCC/C=C/[C@@H](O)[C@H](CO)NC(C)=O", "note": "[N-AS, N-((2S,3R,E)-1,3-Dihydroxyoctadec-4-en-2-yl)acetamide]", "values": [{"measurement": "calculated percentage of B220+ B cell", "setting": "APP/PS1 mice [1]", "value": "2.8 and 2.66 and 2.73 and 2.695"}, {"measurement": "calculated percentage of CD4+ T cell", "setting": "APP/PS1 mice [1]", "value": "2.24 and 2.43 and 2.335 and 2.3825"}, {"measurement": "calculated percentage of CD45+CD11b+Ly6ChiLy6G- monocyte", "setting": "APP/PS1 mice [1]", "value": "0.84 and 1.06 and 0.92 and 0.95 and 0.99 and 0.935"}, {"measurement": "calculated percentage of CD45hi CD11b+ Gr-1- F4/80+ CD206+ (anti-inflammatory macrophage)", "setting": "APP/PS1 mice [1]", "value": "0.4 and 0.45 and 0.37 and 0.39 and 0.41 and 0.38"}, {"measurement": "calculated percentage of CD45hi CD11b+ Gr-1- F4/80+ MHCIIhi (pro-inflammatory macrophage)", "setting": "APP/PS1 mice [1]", "value": "0.46 and 0.45 and 0.59 and 0.4 and 0.52 and 0.495"}, {"measurement": "calculated percentage of cd45+cd11b+gr1+ neutrophil", "setting": "APP/PS1 mice [1]", "value": "0.452 and 0.46 and 0.34 and 0.504 and 0.4 and 0.422"}, {"measurement": "calculated percentage of cd45+ly6g+gr1+ neutrophil", "setting": "APP/PS1 mice [1]", "value": "0.99 and 1.19 and 0.83 and 0.97 and 1.01 and 0.9"}, {"measurement": "GFAP+ astrocyte quantification (Figure 6i)", "setting": "APP/PS1 mice [2]; [3]", "value": "2.9 and 1.684 and 2.972 and 1.386 and 1.661 and 0.8495 and 1.293 and 1.379"}, {"measurement": "Iba1+ microglia quantification (Figure 6h)", "setting": "APP/PS1 mice [2]; [3]", "value": "0.2355 and 0.191 and 0.3245 and 0.8739 and 0.8648 and 0.875 and 0.5574 and 0.579 and 0.4301"}, {"measurement": "inflammatory response (Iba1+ microglia, GFAP+ astrocyte)", "setting": "APP/PS1 mice [2]; N-AS vs vehicle APP/PS1", "value": "improved"}, {"measurement": "synaptophysin (western blot)", "setting": "5×FAD mice; 5xFAD+N-AS, sFig 8f (sheet untitled)", "value": "4.053 and 6.357 and 5.065 and 6.083 and 5.205 and 5.711"}, {"measurement": "MAP2 (western blot)", "setting": "5×FAD mice; 5xFAD+N-AS, sFig 8g (sheet untitled)", "value": "2.523 and 3.013 and 3.332 and 2.975 and 2.768 and 3.172"}, {"measurement": "PSD95 (western blot)", "setting": "5×FAD mice; 5xFAD+N-AS, sFig 8i (sheet untitled)", "value": "1.388 and 2.072 and 1.927 and 1.53 and 1.73 and 1.999"}, {"measurement": "synapsin1 (western blot)", "setting": "5×FAD mice; 5xFAD+N-AS, sFig 8h (sheet untitled)", "value": "3.576 and 2.661 and 2.523 and 3.332 and 3.119 and 2.592"}, {"measurement": "synapse activity", "setting": "5×FAD mice; 5×FAD, N-AS 30 mg kg^-1 daily s.c. 4 weeks", "value": "similarly improved AD pathology of 5×FAD mice"}]}
